This series is described as follows: Physical properties of the semifluorinated alkanes stated in the description. The class given is physicochemical. Particulars: for refractive index: at 20° C.; for density: at 25° C.

With `CCCCCCCCC(F)(F)C(F)(F)C(F)(F)C(F)(F)C(F)(F)C(F)(F)F` [F6H8, 1-perfluorohexyl-octane], the “chemical and physiological inertness (in words)” value is “chemically and physiologically inert”; the “solubility in water (in words)” value is “water-insoluble”; the refractive index was 1.3432; the density turned out to be 1.35 g/mL.
As to `CCCCCC(F)(F)C(F)(F)C(F)(F)C(F)(F)F` [F4H5, 1-perfluorobutyl-pentane], the “chemical and physiological inertness (in words)” value is “chemically and physiologically inert”; the “solubility in water (in words)” value was “water-insoluble”; the refractive index was 1.3204; the density came out at 1.284 g/mL.

A word on the refractive index: it is the speed of light in vacuum divided by its phase velocity in the sample. By density is commonly meant mass per unit of volume.

The values above are taken from US11278503B2, “Pharmaceutical compositions comprising semifluorinated alkanes for the treatment of contact lense-related conditions” (NOVALIQ GMBH, priority 2017, dated 2022).
